Test results taken from patent US20170369523A1, “TEMPLATE-FIXED BETA-HAIRPIN PEPTIDOMIMETICS THAT ARE LIGANDS FOR G-PROTEIN-COUPLED RECEPTORS (GPCRS) AND ARE MODULATORS OF TRANSCRIPTION FACTORS AND COACTIVATORS” (POLYPHOR AG, priority 2008, published 2017).
Values belong to the molecule of their own block, whether it stands above or below them. Numbered stars: 1 amine (or outer) side, 2 acyl side, 3 side chain; on linkers, the order of the positions; unused ones are H or OH. Bridge positions count the residues as written; N and C are the ends. Square brackets hold non-standard residues; d marks the D form. Peptide text beside a SMILES is read from it. Pro(4S-SH) = O=C([C@@H]1C[C@H](S[*:3])CN1[*:1])[*:2]; Trp(6-Cl) = N[C@@H](Cc1c[nH]c2cc(Cl)ccc12)C(=O)O; Oic = O=C(O)[C@@H]1C[C@@H]2CCCC[C@@H]2N1; Gly(octyl) = CCCCCCCC[C@H](N)C(=O)O; Cha = N[C@@H](CC1CCCCC1)C(=O)O; Orn = NCCC[C@H](N)C(=O)O

Tests used:
[1] = Plasma stability, mouse plasma; format: in vitro ADME; conditions: 37° C., sampled up to 240 min
Description: (§1) The stability of the peptides in human and mouse plasma was determined by applying the following method: 315 μl/deep well of freshly thawed human plasma (Basler Blutspende-dienst) and mouse plasma (Harlan Sera-Lab, UK), respectively, were spiked with 35 μl/well of compound in PBS (100 μM, triplicate) and incubated at 37° C. At t=0, 15, 30, 60, 120 and 240 min aliquots of 50 μl were transferred to filtration plate wells containing 150 μl/well of acetonitrile. Following shaking for 2 min the occurred suspensions were filtrated by vacuum and finally. 100 μl of each filtrate were transferred to a propylene microtiter plate, and analyzed by LC/MS as follows: Column: Waters, XBridge C18, mobile phases: (A) water+0.1% formic acid and (B) acetonitrile/water, 95/5 (v/v)+0.1% formic acid, gradient: 5%-100% (B) in 2 minutes, electrospray ionization, MRM detection (triple quadrupole). The peak areas were determined and triplicate values were averaged. The stability was expressed in percent of the initial value at t=0. (tx/t0×100). By using the TREND function of EXCEL (Microsoft Office 2003) T1/2 were determined.

in vitro [2] = format: cell-based; conditions: human
Description: (§2) The cytotoxicity of the peptides to HELA cells (Acc57) and COS-7 cells (CRL-1651) was determined using the MTT reduction assay. Briefly, the method was as follows: 7000 HELA cells/well and 4500 COS-7 cells/well were seeded and grown in 96-well microtiter plates for 24 h at 37° C. at 5% CO2. Thereafter, time zero (Tz) was determined by MTT reduction (see below). The supernatant of the remaining wells was discarded, and fresh medium and compounds in serial dilutions (12.5, 25 and 50 μM, triplicates) were pipetted into the wells. After incubation of the cells for 48 h at 37° C. at 5% CO2 the supernatant was discarded again and 100 μL MTT reagent (0.5 mg/mL in RPMI1640 and DMEM, respectively)/well was added. Following incubation at 37° C. for 2 h the media were aspirated and the cells were spiked (100 μl isopropanol/well). The absorbance of the solubilized formazan was measured at 595 nm (OD595peptide). For each concentration averages were calculated from triplicates. The percentage of growth was calculated as follows: (OD595peptide-OD595Tz-OD595Empty well)/(OD595Tz-OD595Empty well)×100%. The GI50 (Growth Inhibition) concentrations were calculated for each peptide by using a trend line function for the concentrations (50, 25, 12.5 and 0 μM), the corresponding percentages and the value 50, (=TREND (C50:C0,%50:%0,50).

[3] = system: human red blood cells (hRBC); format: cell-based; conditions: red cells of human, 1 h
Description: The peptides were tested for their hemolytic activity against human red blood cells (hRBC). Fresh hRBC were washed three times with phosphate buffered saline (PBS) and centrifuged for 10 min at 2000×g. Compounds (100 μM) were incubated with 20% hRBC (v/v) for 1 h at 37° C. The final erythrocyte concentration was approximately 0.9×10^9 cells/mL. A value of 0% and 100% cell lyses, respectively, was determined by incubation of hRBC in the presence of PBS alone and 0.1% Triton X-100 in H2O, respectively. The samples were centrifuged, the supernatants were 20-fold diluted in PBS buffer and the optical densities (OD) were measured at 540 nm. The 100% lyses value (OD540H2O) gave an OD540 of approximately 1.3-1.8. Percent hemolysis was calculated as follows: […]

in vitro [4] = format: cell-based; conditions: African green monkey
Description: as §2

[5] = Plasma stability, human plasma; format: in vitro ADME; conditions: 37° C., sampled up to 240 min
Description: as §1

human UTR2 receptor = target: T1, human UTR2 receptor (human, UniProt Q9UKP6 1-389); assay: cell-based or functional assay
T1 sequence (looked up): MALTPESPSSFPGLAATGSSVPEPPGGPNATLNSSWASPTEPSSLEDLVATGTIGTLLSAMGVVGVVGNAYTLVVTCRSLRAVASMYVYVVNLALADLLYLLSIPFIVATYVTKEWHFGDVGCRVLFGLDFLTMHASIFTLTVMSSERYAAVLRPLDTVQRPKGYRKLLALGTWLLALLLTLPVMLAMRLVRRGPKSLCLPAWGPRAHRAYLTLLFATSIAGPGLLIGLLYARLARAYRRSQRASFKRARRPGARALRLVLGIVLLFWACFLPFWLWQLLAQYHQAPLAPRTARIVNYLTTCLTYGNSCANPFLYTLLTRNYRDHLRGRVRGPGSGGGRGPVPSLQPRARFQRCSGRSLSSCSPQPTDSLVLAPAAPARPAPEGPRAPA

NCoA-1 = target: T2, NCoA-1 (UniProt Q15788 257-385, limits assumed); assay: competition fluorescence polarization; displacement of FluoSTAT6 from NCoA-1
T2 construct: also called SRC-1
T2 sequence (looked up): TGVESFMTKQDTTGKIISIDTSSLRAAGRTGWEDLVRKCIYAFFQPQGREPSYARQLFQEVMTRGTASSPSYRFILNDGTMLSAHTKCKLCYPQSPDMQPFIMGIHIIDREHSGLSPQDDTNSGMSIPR
Description: The mixtures were shaken thoroughly. Fluorescence polarization was measured on a SPECTRAmax M5 spectrometer (Molecular device) following 5-30 min incubation at room temperature. FluoSTAT6 was excited at 490 nm and emission polarization was detected at 525 nm. 40 intensity measurements were collected for each well, 20 at horizontal position of the dynamic polarizer, 20 at parallel position. As the fraction of FluoSTAT6 bound to NCoA-1 is correlated to the fluorescence polarization (FP), after normalization, the fraction of bound FluoSTAT6 (B) was determined, and the KD was calculated according to B=[(1+P/R+KD/R)−((1+P/R+KD/R)²−4P/R)^{0.5}]/2, wherein P is the total probe concentration, R the total protein concentration and KD the dissociation constant (M. H. Roehrl, J. Y. Wang, G. Wagner, Biochemistry 2004, 3, 16056).
To determine the Kᵢ values of potential inhibitors of the STAT6/NCoA-1 interaction (competition fluorescence polarization) the compounds (dilution series from 0 to 100 μM final concentration) dissolved in HEPES buffer (10 mM HEPES, 150 mM NaCl, 3.4 mM EDTA, 0.1% BSA) were dispensed in a black 96 well plate (Greiner) and FluoSTAT6 (200 nM final concentration) in HEPES buffer was added. The mixture was completed by a HEPES buffer solution of NCoA-1 (1 μM final concentration) and processed as described above. STAT6Y (C-terminal tyrosine extended STAT6 794-814 peptide) was used as a positive control. As the total fluorescence intensity of FluoSTAT6 remains similar for all samples, the fraction of peptide bound to NCoA-1 is correlated to the fluorescence polarization.
Following normalization data were fitted with IGORpro Software® (WaveMetrics, Lake Oswego, Oreg., USA) to a sigmoid equation to determine IC₅₀ values.

Molecule: CC(C)[C@@H]1NC(=O)[C@@H]2CSSC[C@H](NC(=O)[C@H](CC(=O)O)NC(=O)[C@@H]3CCCN3C(=O)[C@H]3CCCN3C1=O)C(=O)N[C@@H](Cc1ccccc1)C(=O)N[C@H](Cc1c[nH]c3ccccc13)C(=O)N[C@@H](CCCN)C(=O)N[C@@H](Cc1ccc(O)cc1)C(=O)N2 [compound 32] (cyclo(DCF[dW][Orn]YCV[dP]P); disulfide 2-7)
Plasmastability mouse pl. T1/2 [1]: 240 min | GI50 at 48 h (in vitro [2]): > 50 µM | Hemolysis at 100 μM [%] [3]: 0% | GI50 at 48 h (in vitro [4]): > 50 µM | Plasmastability human pl. T1/2 [5]: 240 min

Molecule: NCCCC[C@@H]1NC(=O)[C@H](Cc2c[nH]c3ccccc23)NC(=O)[C@H](Cc2ccccc2)NC(=O)[C@@H]2CSSC[C@H](NC(=O)[C@H](Cc3ccc(O)cc3)NC1=O)C(=O)N[C@@H](CC1CCCCC1)C(=O)N1CCC[C@@H]1C(=O)N1CCC[C@H]1C(=O)N[C@@H](CC(=O)O)C(=O)N2 [compound 35] (cyclo(DCFWKYC[Cha][dP]P); disulfide 2-7)
Plasmastability mouse pl. T1/2 [1]: 240 min | GI50 at 48 h (in vitro [2]): > 50 µM | Hemolysis at 100 μM [%] [3]: 0% | GI50 at 48 h (in vitro [4]): > 50 µM | Plasmastability human pl. T1/2 [5]: 240 min

B1: Ex. 28 (peptide)
peptide: cyclo(DCFWKYCL[dS]P)
modifications: disulfide 2-7
SMILES: CC(C)C[C@@H]1NC(=O)[C@@H]2CSSC[C@H](NC(=O)[C@H](CC(=O)O)NC(=O)[C@@H]3CCCN3C(=O)[C@@H](CO)NC1=O)C(=O)N[C@@H](Cc1ccccc1)C(=O)N[C@@H](Cc1c[nH]c3ccccc13)C(=O)N[C@@H](CCCCN)C(=O)N[C@@H](Cc1ccc(O)cc1)C(=O)N2
EC50% (Ca2+ assay, agonist activity) (human UTR2 receptor): < 2 nM

B3: Ex. 1 (peptide)
peptide: cyclo(FE[Trp(6-Cl)]LAWEF[dP]P)
SMILES: CC(C)C[C@@H]1NC(=O)[C@H](Cc2c[nH]c3cc(Cl)ccc23)NC(=O)[C@H](CCC(=O)O)NC(=O)[C@H](Cc2ccccc2)NC(=O)[C@@H]2CCCN2C(=O)[C@H]2CCCN2C(=O)[C@H](Cc2ccccc2)NC(=O)[C@H](CCC(=O)O)NC(=O)[C@H](Cc2c[nH]c3ccccc23)NC(=O)[C@H](C)NC1=O
notes: cyclo(-P1..P8-template-)
Ki (NCoA-1): 0.7 µM

B4: Ex. 5 (peptide)
peptide: cyclo(FT[Trp(6-Cl)]LAWEF[dP][Pro(4S-SH)])
SMILES: CC(C)C[C@@H]1NC(=O)[C@H](Cc2c[nH]c3cc(Cl)ccc23)NC(=O)[C@H]([C@@H](C)O)NC(=O)[C@H](Cc2ccccc2)NC(=O)[C@@H]2C[C@H](S)CN2C(=O)[C@H]2CCCN2C(=O)[C@H](Cc2ccccc2)NC(=O)[C@H](CCC(=O)O)NC(=O)[C@H](Cc2c[nH]c3ccccc23)NC(=O)[C@H](C)NC1=O
notes: cyclo(-P1..P8-template-)
Ki (NCoA-1): 3.8 µM

B6: Ex. 25 (peptide)
peptide: cyclo([Cha]EWLAWEF[dP]P)
SMILES: CC(C)C[C@@H]1NC(=O)[C@H](Cc2c[nH]c3ccccc23)NC(=O)[C@H](CCC(=O)O)NC(=O)[C@H](CC2CCCCC2)NC(=O)[C@@H]2CCCN2C(=O)[C@H]2CCCN2C(=O)[C@H](Cc2ccccc2)NC(=O)[C@H](CCC(=O)O)NC(=O)[C@H](Cc2c[nH]c3ccccc23)NC(=O)[C@H](C)NC1=O
notes: cyclo(-P1..P8-template-)
Ki (NCoA-1): 6 µM

The next lines start with the values.

Ki (NCoA-1): 6.2 µM
B2: Ex. 3 (peptide)
peptide: cyclo(FEWLAWEW[dP][Oic])
SMILES: CC(C)C[C@@H]1NC(=O)[C@H](Cc2c[nH]c3ccccc23)NC(=O)[C@H](CCC(=O)O)NC(=O)[C@H](Cc2ccccc2)NC(=O)[C@@H]2C[C@@H]3CCCC[C@@H]3N2C(=O)[C@H]2CCCN2C(=O)[C@H](Cc2c[nH]c3ccccc23)NC(=O)[C@H](CCC(=O)O)NC(=O)[C@H](Cc2c[nH]c3ccccc23)NC(=O)[C@H](C)NC1=O
notes: cyclo(-P1..P8-template-)

Ki (NCoA-1): 3.6 µM
B5: Ex. 6 (peptide)
peptide: cyclo(FE[Trp(6-Cl)]LA[Gly(octyl)]EF[dP]P)
SMILES: CCCCCCCC[C@@H]1NC(=O)[C@H](C)NC(=O)[C@H](CC(C)C)NC(=O)[C@H](Cc2c[nH]c3cc(Cl)ccc23)NC(=O)[C@H](CCC(=O)O)NC(=O)[C@H](Cc2ccccc2)NC(=O)[C@@H]2CCCN2C(=O)[C@H]2CCCN2C(=O)[C@H](Cc2ccccc2)NC(=O)[C@H](CCC(=O)O)NC1=O
notes: cyclo(-P1..P8-template-)

Ki (NCoA-1): 7.7 µM
B7: Ex. 26 (peptide)
peptide: cyclo([Cha]EWLAWE[Cha][dP]P)
SMILES: CC(C)C[C@@H]1NC(=O)[C@H](Cc2c[nH]c3ccccc23)NC(=O)[C@H](CCC(=O)O)NC(=O)[C@H](CC2CCCCC2)NC(=O)[C@@H]2CCCN2C(=O)[C@H]2CCCN2C(=O)[C@H](CC2CCCCC2)NC(=O)[C@H](CCC(=O)O)NC(=O)[C@H](Cc2c[nH]c3ccccc23)NC(=O)[C@H](C)NC1=O
notes: cyclo(-P1..P8-template-)

Ki (NCoA-1): 15 µM
B8: Ex. 4 (peptide)
peptide: cyclo(FEWL[dA]WEF[dP]P)
SMILES: CC(C)C[C@@H]1NC(=O)[C@H](Cc2c[nH]c3ccccc23)NC(=O)[C@H](CCC(=O)O)NC(=O)[C@H](Cc2ccccc2)NC(=O)[C@@H]2CCCN2C(=O)[C@H]2CCCN2C(=O)[C@H](Cc2ccccc2)NC(=O)[C@H](CCC(=O)O)NC(=O)[C@H](Cc2c[nH]c3ccccc23)NC(=O)[C@@H](C)NC1=O
notes: cyclo(-P1..P8-template-)
